Source: ChEMBL document CHEMBL1140305, “Three-dimensional quantitative structure-activity relationship analyses of beta-lactam antibiotics and tripeptides as substrates of the mammalian H+/peptide cotransporter PEPT1” (J Med Chem, 2005)
Non-standard residues stand in square brackets, D forms with d. Residues, ends and D or L forms follow the SMILES beside them. *: point of attachment. Bip = N[C@@H](Cc1ccc(-c2ccccc2)cc1)C(=O)O; NMeT = CN[C@H](C(=O)O)[C@@H](C)O; OBn = c1ccc(CO*)cc1; Bn = c1ccc(C*)cc1

Target: T1, Solute carrier family 15 member 1 (Homo sapiens, UniProt P46059)
T1 sequence (P46059 whole entry): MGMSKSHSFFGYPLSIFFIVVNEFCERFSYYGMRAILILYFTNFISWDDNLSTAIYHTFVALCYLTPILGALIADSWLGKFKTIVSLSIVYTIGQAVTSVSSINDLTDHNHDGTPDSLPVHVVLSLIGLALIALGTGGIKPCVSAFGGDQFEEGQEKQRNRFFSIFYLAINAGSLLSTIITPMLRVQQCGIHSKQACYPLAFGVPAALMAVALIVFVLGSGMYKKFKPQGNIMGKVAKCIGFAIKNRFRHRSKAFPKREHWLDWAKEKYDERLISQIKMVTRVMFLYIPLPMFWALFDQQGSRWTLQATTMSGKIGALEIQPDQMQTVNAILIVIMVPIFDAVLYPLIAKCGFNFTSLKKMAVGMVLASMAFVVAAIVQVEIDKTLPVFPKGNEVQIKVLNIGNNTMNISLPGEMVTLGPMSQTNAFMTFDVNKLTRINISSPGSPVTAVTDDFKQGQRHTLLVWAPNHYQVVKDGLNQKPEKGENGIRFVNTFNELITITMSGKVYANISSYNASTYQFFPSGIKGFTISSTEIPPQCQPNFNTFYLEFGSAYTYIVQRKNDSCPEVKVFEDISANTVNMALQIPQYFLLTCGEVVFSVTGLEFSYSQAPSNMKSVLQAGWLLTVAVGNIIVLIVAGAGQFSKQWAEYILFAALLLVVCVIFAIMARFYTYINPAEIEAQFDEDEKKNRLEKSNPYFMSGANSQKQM
Test: Binding affinity against membrane transport protein PEPT1 in human Caco-2 cells
Format: cell-based
Conditions: not given

Going from `NCCCC[C@H](NC(=O)[C@@H](N)CC(=O)O)C(=O)O` (H-Asp-Lys-OH) to `NCCCC[C@H](NC(=O)[C@@H](N)CCC(=O)O)C(=O)O` (H-Glu-Lys-OH), the Ki falls from 860 µM to 510 µM (1.7-fold).

`C[C@H](N)C(=O)N[C@@H](C)C(=O)O` (stereo in doubt; 110) and `C[C@H](N)C(=O)N[C@@H](C)C(=O)N[C@@H](C)C(=O)O` are within 1.5-fold of each other in Ki: 140 µM for the first, 180 µM for the second.

Compared with `N[C@@H](Cc1c[nH]c2ccccc12)C(=O)NCC(=O)N[C@@H](Cc1ccc(O)cc1)C(=O)O`, `N[C@@H](Cc1ccc(O)cc1)C(=O)N[C@@H](Cc1ccccc1)C(=O)O` (H-Tyr-Phe-OH) is 1.7-fold lower in Ki: 240 µM for the first, 140 µM for the second.

Compared with `CC(C)C[C@H](N)C(=O)N1CCC[C@H]1C(=O)O` (H-Leu-Pro-OH), `C[C@@H](N)C(=O)N1CCC[C@H]1C(=O)O` is 28-fold higher in Ki: 180 µM for the first, 5000 µM for the second.

Compared with `CC(C)C[C@H](NC(=O)[C@@H]1CCCN1C(=O)[C@H](C)N)C(=O)O` (H-Ala-Pro-Leu-OH), `CC(C)C[C@H](N)C(=O)N1CCC[C@H]1C(=O)N[C@@H](CCCN=C(N)N)C(=O)O` (H-Leu-Pro-Arg-OH) is 1.5-fold lower in Ki: 150 µM for the first, 100 µM for the second. The second binds more tightly here.

First: O=C(O)[C@@H]1CCCN1C(=O)[C@@H]1CCCN1 (H-Pro-Pro-OH)
Second: C[C@H](N)C(=O)N1CCCC1C(=O)O (single isomer, unassigned)
The Ki of the first is 12-fold lower: 1200 µM for the first, 15000 µM for the second.

`C[C@@H](NC(=O)[C@@H](N)Cc1ccc(O)cc1)C(=O)NCC(=O)O` (H-Tyr-[dA]-Gly-OH) and `CC(C)[C@H](NC(=O)[C@H](N)Cc1ccc(O)cc1)C(=O)NCC(=O)O` (H-[dY]-Val-Gly-OH) are the same in Ki: 14000 µM for the first, 14000 µM for the second.

First: [N-]=[N+]=N[C@H](C(=O)NC1C(=O)N2C(C(=O)O)=CCSC12)c1ccccc1 (stereo partly specified)
Second: CCN1CCN(C(=O)N[C@@H](C(=O)N[C@@H]2C(=O)N3[C@@H]2SC(C)(C)[C@@H]3C(=O)O)c2ccccc2)C(=O)C1=O [PIPERACILLIN]
The Ki of the first is lower: 15000 µM for the first, greater than 30000 µM for the second. The first binds more tightly here.

`C[C@H](N)C(=O)N[C@H](CCCCN)C(=O)O` and `C[C@@H](N)C(=O)N[C@H](CCCCN)C(=O)O` cannot be ordered by Ki: greater than 30000 µM for the first, greater than 30000 µM for the second.

Going from `CC(C)C[C@H](NC(=O)[C@H](C)NC(=O)[C@@H](N)C(C)C)C(=O)O` (H-Val-Ala-Leu-OH) to `C[C@H](N)C(=O)N[C@@H](C)C(=O)N[C@H](C)C(=O)O`, the Ki rises from 140 µM to 8300 µM (59-fold). The first binds more tightly here.

First: C[C@H](NC(=O)[C@H](Cc1ccccc1)NCc1ccccc1)C(=O)O
Second: C[C@H](NC(=O)[C@@H](N)Cc1ccc(OCc2ccccc2)cc1)C(=O)O
The Ki of the first is 4.5-fold lower: 20 µM for the first, 90 µM for the second.

First: CC[C@H](C)[C@H](N)C(=O)N[C@@H](Cc1ccc(O)cc1)C(=O)O (H-Ile-Tyr-OH)
Second: CC[C@H](C)[C@H](N)C(=O)N[C@H](C(=O)N[C@@H](Cc1ccc(O)cc1)C(=O)O)C(C)C (H-Ile-Val-Tyr-OH)
The Ki of the first is 1.7-fold lower: 120 µM for the first, 200 µM for the second.

Compared with `C[C@@H](O)[C@H](N)C(=O)N[C@@H](CCCCN)C(=O)N[C@@H](Cc1ccc(O)cc1)C(=O)O` (H-Thr-Lys-Tyr-OH), `N[C@@H](CCC(=O)O)C(=O)N[C@@H](Cc1ccccc1)C(=O)N[C@@H](Cc1ccc(O)cc1)C(=O)O` (H-Glu-Phe-Tyr-OH) is 5.5-fold lower in Ki: 1100 µM for the first, 200 µM for the second.

Compared with `C[C@H](N)C(=O)N[C@@H](C)C(=O)O` (stereo in doubt; 47), `C[C@H](N)C(=O)N[C@H](C)C(=O)N[C@@H](C)C(=O)O` is 8.1-fold higher in Ki: 2100 µM for the first, 17000 µM for the second. The first binds more tightly here.

First: CC1(C)S[C@@H]2[C@H](NC(=O)COc3ccccc3)C(=O)N2[C@H]1C(=O)O [PENICILLIN V]
Second: Cc1onc(-c2ccccc2Cl)c1C(=O)N[C@@H]1C(=O)N2[C@@H]1SC(C)(C)[C@@H]2C(=O)O [CLOXACILLIN]
The Ki of the first is 8.4-fold higher: 21000 µM for the first, 2500 µM for the second. The second binds more tightly here.

Compared with `C[C@H](N)C(=O)NC(=O)C1CCCCC1`, `C[C@H](N)C(=O)N[C@@H](CCCCN)C(=O)O` is 7.1-fold lower in Ki: 1500 µM for the first, 210 µM for the second.

Going from `O=C(O)C[C@H](NC(=O)[C@@H]1CCCN1)C(=O)O` (stereo in doubt; 64) to `N=C(N)NCCC[C@H](NC(=O)[C@@H]1CCCN1)C(=O)O` (H-Pro-Arg-OH), the Ki falls from 9800 µM to 2500 µM (3.9-fold).

Going from `NCCCC[C@H](N)C(=O)N[C@@H](CCC(=O)O)C(=O)O` (H-Lys-Glu-OH) to `C[C@H](NC(=O)[C@@H](N)CCCCN)C(=O)O` (H-Lys-Ala-OH), the Ki falls from 1300 µM to 340 µM (3.8-fold).

Going from `CC1=C(C(=O)O)N2C(=O)[C@@H](NC(=O)[C@H](N)C3=CCC=CC3)[C@H]2SC1` [CEPHRADINE] to `COCC1=C(C(=O)O)N2C(=O)[C@@H](NC(=O)/C(=N\OC)c3csc(N)n3)[C@H]2SC1` [CEFPODOXIME], the Ki rises from 9800 µM to greater than 30000 µM. The first binds more tightly here.

First: CC(C)C[C@H](N)C(=O)NCC(=O)NCC(=O)O (H-Leu-Gly-Gly-OH)
Second: CC(C)C[C@@H](N)C(=O)NCC(=O)NCC(=O)O (H-[dL]-Gly-Gly-OH)
The Ki of the first is 64-fold lower: 390 µM for the first, 25000 µM for the second.

Compared with `C[C@H](N)C(=O)N[C@H](Cc1ccccc1)C(=O)N[C@@H](C)C(=O)O`, `CC(C)C[C@H](NC(=O)[C@H](Cc1ccccc1)NC(=O)[C@H](C)N)C(=O)O` (H-Ala-Phe-Leu-OH) is 190-fold lower in Ki: 19000 µM for the first, 100 µM for the second.

Compared with `CC(C)C[C@H](N)C(=O)N[C@@H](C)C(=O)N[C@@H](CCCNC(=N)N)C(=O)O` (H-Leu-Ala-Arg-OH), `CC(C)C[C@H](N)C(=O)N[C@@H](CCCN=C(N)N)C(=O)N1CCC[C@H]1C(=O)O` (H-Leu-Arg-Pro-OH) is 2.7-fold higher in Ki: 110 µM for the first, 300 µM for the second. The first binds more tightly here.

`C[C@H](NC(=O)[C@@H](N)COCc1ccccc1)C(=O)O` (H-Ser(Bn)-Ala-OH) and `C[C@H](NC(=O)[C@@H](N)CC(=O)OCc1ccccc1)C(=O)O` (H-Asp(OBn)-Ala-OH) are the same in Ki: 90 µM for the first, 90 µM for the second.

`CSCC[C@H](NC(=O)[C@H](CCSC)NC(=O)[C@@H](N)CCSC)C(=O)O` (stereo in doubt; 10) and `CC(C)C[C@H](NC(=O)[C@H](CC(C)C)NC(=O)[C@@H](N)Cc1ccccc1)C(=O)O` (H-Phe-Leu-Leu-OH) are within 1.5-fold of each other in Ki: 100 µM for the first, 140 µM for the second.

First: Cc1onc(-c2c(F)cccc2Cl)c1C(=O)N[C@@H]1C(=O)N2[C@@H]1SC(C)(C)[C@@H]2C(=O)O [FLOXACILLIN]
Second: Cc1nnc(SCC2=C(C(=O)O)N3C(=O)[C@@H](NC(=O)Cn4cnnn4)[C@H]3SC2)s1 [CEFAZOLIN]
The Ki of the first is lower: 3200 µM for the first, greater than 30000 µM for the second. The first binds more tightly here.

Compared with `CO[C@@]1(NC(=O)Cc2cccs2)C(=O)N2C(C(=O)O)=C(COC(N)=O)CS[C@@H]21` [CEFOXITIN], `CC[C@H](C)[C@H](NC(=O)[C@@H]1CCCN1C(=O)[C@@H](N)Cc1ccc(O)cc1)C(=O)O` (H-Tyr-Pro-Ile-OH) is 40-fold lower in Ki: 10000 µM for the first, 250 µM for the second. The second binds more tightly here.

Compared with `NCCCC[C@H](NC(=O)[C@H](Cc1ccccc1)NC(=O)[C@@H]1CCCN1)C(=O)O` (H-Pro-Phe-Lys-OH), `C[C@@H](N)C(=O)N[C@@H](CCCCN)C(=O)O` is 3.5-fold higher in Ki: 2000 µM for the first, 7000 µM for the second. The first binds more tightly here.

Going from `C[C@H](NC(=O)[C@H](C)NOC(=O)[C@@H](C)N)C(=O)O` to `CC(C)C[C@H](NC(=O)[C@H]([C@@H](C)O)N(C)C(=O)[C@@H](N)CC(C)C)C(=O)O` (H-Leu-[NMeT]-Leu-OH), the Ki falls from 7900 µM to 110 µM (72-fold). The second binds more tightly here.

`N[C@@H](Cc1c[nH]c2ccccc12)C(=O)N[C@@H](Cc1c[nH]c2ccccc12)C(=O)N[C@@H](Cc1c[nH]c2ccccc12)C(=O)O` (H-Trp-Trp-Trp-OH) and `C[C@H](NC(=O)[C@@H](N)Cc1c[nH]c2ccccc12)C(=O)O` (H-Trp-Ala-OH) are within 1.5-fold of each other in Ki: 170 µM for the first, 160 µM for the second.

Going from `CSCC[C@H](NC(=O)[C@H](CCSC)NC(=O)[C@@H](N)CCSC)C(=O)O` (stereo in doubt; 119) to `C[C@H](NC(=O)[C@@H](N)CCCCN)C(N)=O` (H-Lys-Ala-NH2), the Ki rises from 520 µM to 6400 µM (12-fold).

First: N[C@@H](Cc1ccc(O)cc1)C(=O)NCC(=O)NCC(=O)O (H-Tyr-Gly-Gly-OH)
Second: C[C@H](NC(=O)[C@@H](N)Cc1ccc(-c2ccccc2)cc1)C(=O)O (H-[Bip]-Ala-OH)
The Ki of the first is 35-fold higher: 350 µM for the first, 10 µM for the second. The second binds more tightly here.

Compared with `NCC(=O)N[C@@H](Cc1c[nH]cn1)C(=O)O` (H-Gly-His-OH), `O=C(O)CNC(=O)CNC(=O)[C@@H]1CCCN1` (H-Pro-Gly-Gly-OH) is 3.9-fold higher in Ki: 4100 µM for the first, 16000 µM for the second.

Same assay, conditions: caco-2

Going from `O=C(O)C[C@H](NC(=O)[C@@H]1CCCN1)C(=O)O` (stereo in doubt; 121) to `CC(C)[C@H](N)C(=O)N1CCC[C@H]1C(=O)N1CCC[C@@H]1C(=O)O`, the Ki falls from 9800 µM to 4300 µM (2.3-fold). The second binds more tightly here.
